From US11731974B2, “N-acyl-(3-substituted)-(8-substituted)-5,6-dihydro-[1,2,4]triazolo[4,3-a]pyrazines as selective NK-3 receptor antagonists” (Ogeda SA, priority 2013, dated 2023)

Assays:
circulating LH levels = assay: Castrated male rat model, circulating levels of luteinizing hormone (LH); format: in vivo; settings: single oral dose less than or equal to 30 mg/kg, p<0.05
Experimental: In Vivo Assay to Assess Compound Activity in Rat (Oral Dosing)
Castrated male rat model to assess the effect of compound of invention on circulating levels of luteinizing hormone (LH)
The effect of compounds of the invention to inhibit luteinizing hormone (LH) secretion is determined by the following biological studies.
In humans and rodents, castration is well-precedented to permit heightened, persistent GnRH signaling and consequent elevation of circulating LH. Thus, a castrated rat model is used to provide a broad index for measurement of LH inhibition as a marker of test compound inhibition of the GnRH signaling pathway.
Castrated adult male Sprague-Dawley (SD) rats (150-175 g) were purchased from Janvier (St Berthevin, France). All animals were housed 2 per cage in a temperature-controlled room (22±2° C.) and 50±5% relative humidity with a 12 hour/12 hour light/dark cycles (lights off at 6 h00 pm). The animals were allowed 3 weeks of postoperative recovery prior to study. Animals were handled on a daily basis. Standard diet and tap water were provided ad libitum. Animal cage litters were changed once a week. On the study day, animals were acclimated to the procedure room for a period of one hour prior to the initiation of the experiment.
Compounds of the invention were formulated in 0.5% methyl cellulose.
After basal sampling (TO) a single dose of compounds of the invention or vehicle was administrated orally to rats. Blood samples were then collected at several time points post dosing (45, 90, 150, 300 and 420 minutes). Blood samples were obtained via tail vein bleed, drawn into EDTA-containing tubes and centrifuged immediately. Plasma samples were collected and stored in a −80° C. freezer until assayed. Serum LH levels were determined using radioimmunoassay kit from RIAZEN—Rat LH, Zentech (Liege, Belgium). Baseline was defined as the initial basal blood sample.

[1] = test system: body temperature in ovariectomized ewes; assay: In vivo assay in OVX ewes, thermoregulation; design: species or system ewe; settings: 1 mg/kg intravenous
Source text: In Vivo Assay in OVX Ewes-Activity in Thermoregulation Experimental Methods: Evaluation of Thermoregulation in OVX Ewe […] After 4 months recovery, animals were acclimatised to housing in single pens for a period of 7 days with ad libitum access to water and […] lucerne hay. One day prior to experimentation, the animals received a jugular vein cannula ([…], Tuta Laboratories, Lane Cove, Australia). The cannula were kept patent with heparinised saline. […] Animals were fed at 12 h00. Rectal temperatures were monitored with a probe at hourly intervals throughout the experiment, starting at 7 h40 and concluding at 15 h40. […] However, this pyrogenic response to feeding in ovarectomized ewes was not observed in any animals treated with compound no 5. […] Graphical data presented as mean±SEM for vehicle-treated versus compound no 5-treated ewes (N=5/group). Statistical analyses performed by 2-way ANOVA followed by Sidak's Multiple Comparisons Test between treatment groups at the indicated time interval, *p<0.05. Conclusions: Ovariectomy in the ewe causes changes in core body temperature considered analogous to menopausal hot flashes ([…], Bryant, & Turner, 2003) to the extent that a transient, pyrogenic response to feeding is observed (Henry, Dunshea, Gould, & Clarke, 2008).

plasma estradiol = assay: Estradiol circulating level in female rats; format: in vivo, rat; settings: 10 mg/kg b.i.d. oral, two consecutive estrous cycles, FIG. 3
Experimental: Effect of compounds of the invention on Estradiol circulating level in female rats. The aim of this study was to evaluate the effect of compounds of the invention on plasma estradiol levels following oral administration at 10 mg/kg (b.i.d.) for a period of 10 days in female rats.
(§1) Briefly the experimental methods used for this study were as follows:
Two groups of adult, female rats (Sprague-Dawley, ˜320 g) were treated in-phase with their individual estrous cycles. […] Compounds of the invention were prepared in a dose formulation of pyrogen-free water with 0.5% methylcellulose. Estradiol levels were determined for all groups by ELISA performed on plasma samples derived from blood collections taken at 30 minutes before the daily, 9 h30 test article administration on all days presented in FIG. 3.

[2] = test system: serum TT, LH, FSH in women with PCOS; assay: Phase 2a clinical trial, PolyCystic Ovary Syndrome (PCOS); format: in vivo, human; settings: 180 mg QD
Experimental: The Phase 2a trial was double blind and randomized.
Blood draws for LH, FSH and TT were taken every visit between 2 and 8 hours after drug intake (baseline and week 3-6-12). […] These blood draws were the basis for assessing the primary (TT) and secondary (LH, FSH, LH:FSH ratio) endpoints. The primary endpoint of Total Testosterone was measured according to GLP using an LC-MS/MS method.
PCOS is typically characterized by excessive ovarian androgen production, failure of ovulation, and slightly enlarged ovaries with numerous peripheral small follicles that appear as cysts. The disorder is commonly accompanied by infertility. Typically, the clinical features of PCOS are associated with hypersecretion of LH and androgens (TT) but with normal serum concentrations of FSH hormone.
Statistical analyses performed by 2-way ANOVA comparing placebo to treatment.

plasma testosterone = assay: Plasma testosterone in gonad intact male rats; format: in vivo, rat; settings: 3 mg/kg single oral, vs vehicle, FIG. 1
Experimental: The study was designed to evaluate the effect of compounds of the invention on testosterone circulating levels following oral administration at 3 mg/kg on SD gonad intact male rats.
as §1
Two groups of non-fasted rats (male, Sprague-Dawley, 200 to 225 g; n=4 rats/group) with jugular vein cannulation, were dosed via a single oral administration of compounds of the invention at 3 mg/kg. The control group was dosed with the vehicle. Compounds of the invention were prepared in a dose formulation of pyrogen-free water with 0.5% methylcellulose. Blood samples were collected via the catheter implanted in the jugular vein at pre-determined intervals using EDTA-3K as anti-coagulant. Samples were chilled and rapidly processed by centrifugation to obtain corresponding plasma samples. Testosterone hormone levels were determined by RIA performed on plasma samples collected for all the groups at 5 minutes before administration (basal time), and at 45, 90, 150, 300, 480 minutes and 24 hours after dosing.

Row | SMILES | circulating LH levels (circulating LH levels) | also measured
1 | Cc1nsc(-c2nnc3n2CCN(C(=O)c2ccc(Cl)c(Cl)c2)[C@@H]3C)n1 [Compound 1, (R)-(3,4-dichlorophenyl)(8-methyl-3-(3-methyl-1,2,4-thiadiazol-5-yl)-5,6-dihydro-[1,2,4]triazolo[4,3-a]pyrazin-7(8H)-yl)methanone] | significantly suppressed | 
2 | Cc1nsc(-c2nnc3n2CCN(C(=O)c2ccc(F)c(F)c2F)[C@@H]3C)n1 [Compound 8, (R)-(8-methyl-3-(3-methyl-1,2,4-thiadiazol-5-yl)-5,6-dihydro-[1,2,4]triazolo[4,3-a]pyrazin-7(8H)-yl)(2,3,4-trifluorophenyl)methanone] | significantly suppressed | 
3 | CCc1noc(-c2nnc3n2CCN(C(=O)c2ccc(-c4cccs4)cc2)[C@@H]3C)n1 [Compound 30, (R)-(3-(3-ethyl-1,2,4-oxadiazol-5-yl)-8-methyl-5,6-dihydro-[1,2,4]triazolo[4,3-a]pyrazin-7(8H)-yl)(4-(thiophen-2-yl)phenyl)methanone] | significantly suppressed | 
4 | Cc1nsc(-c2nnc3n2CCN(C(=O)c2ccccc2)[C@@H]3C)n1 [Compound 20, (R)-(8-methyl-3-(3-methyl-1,2,4-thiadiazol-5-yl)-5,6-dihydro-[1,2,4]triazolo[4,3-a]pyrazin-7(8H)-yl)(phenyl)methanone] | significantly suppressed | 
5 | CCc1noc(-c2nnc3n2CCN(C(=O)c2ccc(F)cc2)[C@@H]3C)n1 [Compound 13, (R)-(3-(3-ethyl-1,2,4-oxadiazol-5-yl)-8-methyl-5,6-dihydro-[1,2,4]triazolo[4,3-a]pyrazin-7(8H)-yl)(4-fluorophenyl)methanone] | significantly suppressed | 
6 | Cc1nsc(-c2nnc3n2CCN(C(=O)c2ccc(F)cc2)[C@@H]3C)n1 [Compound 5, (R)-(4-fluorophenyl)(8-methyl-3-(3-methyl-1,2,4-thiadiazol-5-yl)-5,6-dihydro-[1,2,4]triazolo[4,3-a]pyrazin-7(8H)-yl)methanone] | significantly suppressed | pyrogenic response to feeding [1]: not observed; estradiol levels (plasma estradiol): significantly decreased; FSH secretion [2]: preserved; LH [2]: significant decrease; LH:FSH in comparison of placebo [2]: significantly reduced; TT in comparison of placebo [2]: significantly reduced; plasma testosterone level (plasma testosterone): significantly suppressed
7 | Cc1nsc(-c2nnc3n2CCN(C(=O)c2ccc(F)c(F)c2)[C@@H]3C)n1 [Compound 9, (R)-(3,4-difluorophenyl)(8-methyl-3-(3-methyl-1,2,4-thiadiazol-5-yl)-5,6-dihydro-[1,2,4]triazolo[4,3-a]pyrazin-7(8H)-yl)methanone] | significantly suppressed | 
8 | CCc1nsc(-c2nnc3n2CCN(C(=O)c2ccc(F)cc2)[C@@H]3C)n1 [Compound 2, (R)-(3-(3-ethyl-1,2,4-thiadiazol-5-yl)-8-methyl-5,6-dihydro-[1,2,4]triazolo[4,3-a]pyrazin-7(8H)-yl)(4-fluorophenyl)methanone] | significantly suppressed | 
9 | Cc1nsc(-c2nnc3n2CCN(C(=O)c2ccc(Cl)c(F)c2)[C@@H]3C)n1 [Compound 4, (R)-(4-chloro-3-fluorophenyl)(8-methyl-3-(3-methyl-1,2,4-thiadiazol-5-yl)-5,6-dihydro-[1,2,4]triazolo[4,3-a]pyrazin-7(8H)-yl)methanone] | significantly suppressed | 
